The values that follow come from article PMC5344255, “Design, Synthesis and Biochemical Evaluation of Novel Selective Estrogen Receptor Ligand Conjugates Incorporating an Endoxifen-Combretastatin Hybrid Scaffold” (Biomedicines, 2016).

Broadly, the IC50 is the concentration needed to halve the response being measured. One may read the melting point as the temperature of the solid-liquid transition.

For series [1], the system named is MCF-7 human breast cancer cells. The series can be described thus: MTT assay for antiproliferative effects in MCF-7. Type of series: cell-based. Here is the method:
(§1) The human breast carcinoma cell line, MCF-7, was purchased from the European Collection of Animal Cell Cultures (ECACC). The cells were maintained in MCF-7 complete medium; consisting of Eagle’s Minimum Essential Medium (MEM) supplemented with 10% (v/v) Foetal Bovine Serum (FBS), 2 mM L-glutamine, 100 μg/mL penicillin/streptomycin and 1% (v/v) non-essential amino acids. Cell cultures were maintained at 37 °C under a humidified atmosphere of 5% CO2/95% O2. The human breast carcinoma cell line, MDA, was purchased from the European Collection of Animal Cell Cultures (ECACC). The cells were maintained in MDA complete medium; consisting of Dulbecco’s Modified Eagle’s Medium (D-MEM) supplemented with 10% (v/v) Foetal Bovine Serum (FBS), 2 mM L-glutamine, 100 μg/mL penicillin/streptomycin. Cell cultures were maintained at 37 °C under a humidified atmosphere of 5% CO2/95% O2. The MTT assay was performed according to the reported protocol. The tetrazolium salt, 3-(4,5-dimethylthiazol-2-yl)-2,5-diphenyltetrazolium bromide (MTT) is taken up only by metabolically active cells and cleaved to form a formazan dye by mitochondrial dehydrogenases. Assays where repeated in three experiments performed in triplicate (unless otherwise stated) and reported results represent the mean value ± standard error mean. Graphs of percentage cell viability versus concentration of the subject compound were processed using PRISM [31].

Series [2] deals with MDA-MB-231 human breast cancer cells. The series can be described thus: MTT assay for antiproliferative effects in MDA-MB-231. Conditions: MDA-MB-231, MTT assay. The class given is cell-based. How it is done:
as §1, with “Cell cultures were maintained at 37 °C under a humidified atmosphere of 5% CO2/95% O2.” left out, “Assays where repeated in three experiments performed in triplicate (unless otherwise stated) and reported results represent the mean value ± standard error mean.” left out
Background: Tetrazolium dyes change colour on reduction, which living cells bring about.

Series [3] relates to MCF-7 human breast cancer cells. The series can be described thus: Lactate dehydrogenase (LDH) cytotoxicity assay in MCF-7. Type of series: cell-based. The settings on record: % cell lysis at 10 µM. How it is done: (§2) In this assay, the release of cytoplasmic lactate dehydrogenase (LDH) is used as a measure of cell lysis. MCF-7 and MDA-MB-231 cells were seeded at a density of 1 × 10^4 cells/well in a 96-well plate and incubated for 24 h. The cells were then dosed with 2 μL volumes of the test compounds, over the concentration range 1 nM–50 μM. Cytotoxicity was determined using the CytoTox 96 nonradioactive cytotoxicity assay (Promega, Madison, WI, USA) following the manufacturer’s protocol.

The subject of series [4] is MDA-MB-231 human breast cancer cells. The series can be described thus: Lactate dehydrogenase (LDH) cytotoxicity assay in MDA-MB-231. Type of series: cell-based. The settings on record: % cell lysis at 10 μM. How it is done:
as §2

Series [5] has as its system Ishikawa cell line of human endometrial adenocarcinoma cells. The experiment in a line: Ishikawa assay, estrogen stimulation of alkaline phosphatase activity. Type of series: cell-based. How it is done: The Ishikawa assay is used to measure estrogen stimulation of alkaline phosphatase enzyme activity (AlkP) by the Ishikawa cell line of human endometrial adenocarcinoma cells. The Ishikawa assay provides a measure of the agonist activity of a compound. […] The assay was carried out following the method of Littlefield et al.. The batch of Ishikawa cells were obtained as a gift from Professor R. Hochberg—who developed the alkaline phosphatase assay in Yale University, CT, USA.
The Ishikawa assay is used to measure estrogen stimulation of alkaline phosphatase enzyme activity (AlkP) by the Ishikawa cell line of human endometrial adenocarcinoma cells. […] The conjugate was dosed in duplicate.

Setting [6] is: Homo sapiens, MCF7, MCF-7, MTT assay, mean of at least three experiments in triplicate.

Compound `COc1cc(/C(=C\c2ccc(C)cc2)C(=O)O)cc(OC)c1OC` [Compound 19, (E)-3-p-Tolyl-2-(3,4,5-trimethoxyphenyl)acrylic acid] showed a melting point of 190 to 193 °C. Besides, the IC50 in series [1] (setting [6]) was 26100 nM.
Consider `COc1ccc(/C(=C\c2cc(OC)c(OC)c(OC)c2)C(=O)N2CCCCC2)cc1` [Compound 47, (E)-2-(4-Methoxyphenyl)-1-(piperidin-1-yl)-3-(3,4,5-trimethoxyphenyl)prop-2-en-1-one], for which the melting point was in the range of 106 to 108 °C. The same compound registered an IC50 in series [1] (setting [6]) of more than 50000 nM.
`CCC(=C(c1ccc(O)cc1)c1ccc(OCCN(C)C(=O)/C(=C/c2ccc3ccccc3c2)c2cc(OC)c(OC)c(OC)c2)cc1)c1ccccc1` (mixture of isomers) [Compound 35, (E)-N-(2-{4-[(E/Z)-1-(4-Hydroxyphenyl)-2-phenylbut-1-enyl]phenoxy}ethyl)-N-methyl-3-naphthalen-2-yl-2-(3,4,5-trimethoxyphenyl) acrylamide]: the IC50 is 1510 nM in series [1] (setting [6]) and 2160 nM in series [2]. For the same compound, the “% Cell Death at 10 μM” value in series [3] and in series [4] was 0% throughout.
On to `CCC(=C(c1ccc(O)cc1)c1ccc(OCCN(C)C(=O)/C(=C/c2ccc(OC)c(F)c2)c2cc(OC)c(OC)c(OC)c2)cc1)c1ccc(O)cc1` (mixture of isomers) [Compound 44, (E)-N-(2-{4-[(E/Z)-1,2-Bis-(4-hydroxyphenyl)but-1-enyl]phenoxy}ethyl)-3-(3-fluoro-4-methoxyphenyl)-N-methyl-2-(3,4,5-trimethoxyphenyl)acrylamide], for which the IC50 in series [1] (setting [6]) came to 194 nM; in series [2] it was 1850 nM. Also, the “% Cell Death at 10 μM” value in series [3] is recorded as 10%; in series [4], 14%.
For `CCC(=C(c1ccc(O)cc1)c1ccc(OCCN(C)C(=O)/C(=C/c2ccc(OC)cc2)c2cc(OC)c(OC)c(OC)c2)cc1)c1ccccc1` (mixture of isomers) [Compound 29, (E)-N-(2-{4-[(E/Z)-1-(4-Hydroxyphenyl)-2-phenylbut-1-enyl]phenoxy}-ethyl)-3-(4-methoxyphenyl)-N-methyl-2-(3,4,5-trimethoxyphenyl)acrylamide], in that order: 87 nM, 30600 nM, 12% and 2%.
For `COc1ccc(/C=C\c2cc(OC)c(OC)c(OC)c2)cc1O` [Compound 26, Combretastatin A-4, reference compound], the IC50 in series [1] (setting [6]) was 8 nM; in series [1] (Homo sapiens, MCF7, MCF-7, MTT assay, values in nM), 8 nM; in series [2], 43 nM. Besides, the “% Cell Death at 10 μM” value came to 13% in series [3] and 4% in series [4].
On to `CCC(=C(c1ccc(O)cc1)c1ccc(OCCN(C)C(=O)/C(=C/c2ccc3c(c2)OCO3)c2ccc(OC)cc2)cc1)c1ccccc1` (mixture of isomers) [Compound 33, (E)-3-Benzo[1,3]dioxol-5-yl-N-(2-{4-[(E/Z)-1-(4-hydroxyphenyl)-2-phenylbut-1-enyl]phenoxy}ethyl)-2-(4-methoxyphenyl)-N-methylacrylamide], for which the IC50 in series [1] (setting [6]) was 1470 nM; in series [2], 5230 nM. Moreover, the “% Cell Death at 10 μM” value worked out at 8% in series [3] and 0% in series [4].
Regarding `CC/C(=C(\c1ccccc1)c1ccc(OCCN(C)C)cc1)c1ccccc1` [Tamoxifen, reference compound], in series [5] (compound dosed individually), the “estrogenic activity (alkaline phosphatase stimulation)” value is “displays some estrogenic activity at higher concentrations”. In addition, the “estrogen stimulation (alkaline phosphatase) in mixture with estradiol” value in series [5] (dosed with 1 nM estradiol spike) is “estrogen stimulation at low concentration while a reduction occurs as the concentration of Tamoxifen is increased”. Also, in series [4], the “% Cell Death at 10 μM” value is 0%.
`COc1cc(/C(=C\c2ccc3ccccc3c2)C(=O)O)cc(OC)c1OC` [Compound 22, (E)-3-Naphthalen-2-yl-2-(3,4,5-trimethoxyphenyl)acrylic acid]: the melting point was 238 to 240 °C. Besides, in series [1] (setting [6]), inhibition was half-maximal at 15300 nM (IC50).
`COc1cc(/C(=C\c2ccc(F)cc2)C(=O)O)cc(OC)c1OC` [Compound 18, (E)-3-(4-Fluorophenyl)-2-(3,4,5-trimethoxyphenyl)acrylic acid] had a melting point of 211 to 213 °C. The IC50 in series [1] (setting [6]) was more than 50000 nM.
The matching figures for `COc1cc(/C(=C\c2ccc(Br)cc2)C(=O)O)cc(OC)c1OC` [Compound 17, (E)-3-(4-Bromophenyl)-2-(3,4,5-trimethoxyphenyl)acrylic Acid]: 227 to 230 °C and more than 50000 nM.
For `CCC(=C(c1ccc(O)cc1)c1ccc(OCCN(C)C(=O)/C(=C/c2ccc(OC)c(F)c2)c2cc(OC)c(OC)c(OC)c2)cc1)c1ccccc1` (mixture of isomers) [Compound 43, (E)-3-(3-Fluoro-4-methoxyphenyl)-N-(2-{4-[(E/Z)-1-(4-hydroxyphenyl)-2-phenylbut-1-enyl]phenoxy}ethyl)-N-methyl-2-(3,4,5-trimethoxyphenyl) acrylamide], the IC50 in series [1] (setting [6]) was 180 nM; in series [2], 30300 nM. Besides, the “% Cell Death at 10 μM” value is 2% in series [3] and 0% in series [4].
Turning to `COc1ccc(/C=C(/C(=O)O)c2cc(OC)c(OC)c(OC)c2)cc1N` [Compound 16, (E)-3-(3-Amino-4-methoxyphenyl)-2-(3,4,5-trimethoxyphenyl)acrylic acid], the melting point is 199 to 202 °C. Moreover, the IC50 in series [1] (setting [6]) was less than 10000 nM. Moreover, the IC50 in series [1] (MCF-7, MTT assay, mean of at least three experiments in triplicate) was 6700 nM.
Take `CCC(=C(c1ccc(O)cc1)c1ccc(OCCN(C)C(=O)/C(=C/c2ccc(OC)c(N)c2)c2cc(OC)c(OC)c(OC)c2)cc1)c1ccccc1` (mixture of isomers) [Compound 45, (E)-3-(3-Amino-4-methoxyphenyl)-N-(2-{4-[(E/Z)-1-(4-hydroxyphenyl)-2-phenylbut-1-enyl]phenoxy}ethyl)-N-methyl-2-(3,4,5-trimethoxyphenyl) acrylamide]: the IC50 in series [1] (setting [6]) amounted to 959 nM; in series [2], 7110 nM. Besides, the “% Cell Death at 10 μM” value was found to be 8% in series [3] and 0% in series [4].
Turning to `COc1cc(/C(=C\c2ccc(SC)cc2)C(=O)O)cc(OC)c1OC` [Compound 20, (E)-3-(4-Methylsulfanylphenyl)-2-(3,4,5-trimethoxyphenyl)acrylic acid], the melting point fell in the range of 194 to 196 °C. Also, half-maximal inhibition in series [1] (setting [6]) (IC50) required 10600 nM.
In the case of `CCC(=C(c1ccc(O)cc1)c1ccc(OCCN(C)C(=O)/C(=C/c2ccc(OC)cc2)c2cc(OC)c(OC)c(OC)c2)cc1)c1ccc(O)cc1` (mixture of isomers) [Compound 30, (E)-N-(2-{4-[(E/Z)-1,2-Bis-(4-hydroxyphenyl)but-1-enyl]phenoxy}ethyl)-3-(4-methoxyphenyl)-N-methyl-2-(3,4,5-trimethoxyphenyl)acrylamide], the IC50 in series [1] (setting [6]) is 43 nM; in series [2], 6290 nM. For the same compound, the results for the “% Cell Death at 10 μM” value in series [3] and in series [4] were 19% and 7%, respectively.
